According to BindingDB's records for doi:10.1021/jm061242y (Elan Pharmaceuticals, 2007):

Target: Beta-secretase 1 (Homo sapiens, UniProt P56817)
Experiment: BACE Enzyme Inhibition Assay
Conditions: pH 4.8; 37 °C
Experimental: Beta-cleavage ELISA assays were carried out in reaction buffer containing enzyme, substrate MBP-C125, and test compounds. Generated beta-cleaved product was detected using biotinylated Sw192 or biotinyated Wt192 as specific reporter antibodies and quantitated against the appropriate MBP-C125 standard.

Sequence of Beta-secretase 1 (P56817 whole entry): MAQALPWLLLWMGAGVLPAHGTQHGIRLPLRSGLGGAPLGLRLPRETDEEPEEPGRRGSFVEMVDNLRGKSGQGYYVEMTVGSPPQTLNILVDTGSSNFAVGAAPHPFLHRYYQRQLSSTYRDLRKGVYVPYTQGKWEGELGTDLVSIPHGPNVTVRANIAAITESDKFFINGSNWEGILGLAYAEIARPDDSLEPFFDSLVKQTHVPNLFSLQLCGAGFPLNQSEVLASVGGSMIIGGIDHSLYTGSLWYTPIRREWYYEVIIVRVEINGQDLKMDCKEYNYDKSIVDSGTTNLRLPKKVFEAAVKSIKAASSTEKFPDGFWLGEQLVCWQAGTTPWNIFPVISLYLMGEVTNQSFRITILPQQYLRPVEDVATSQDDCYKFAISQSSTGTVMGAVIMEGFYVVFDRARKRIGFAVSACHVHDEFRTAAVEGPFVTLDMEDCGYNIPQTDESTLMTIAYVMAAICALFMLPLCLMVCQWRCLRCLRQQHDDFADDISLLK

IC50 | Compound
0.03 µM | CCCN(CCC)C(=O)c1cccc(C(=O)N[C@@H](Cc2cc(F)cc(F)c2)[C@@H](O)C[C@@H](C)C(=O)NCC(C)C)c1
68 µM | CCCN(CCC)C(=O)c1cccc(C(=O)N[C@@H](Cc2cc(F)cc(F)c2)[C@@H](O)CN[C@@H](C)C(=O)NCC(C)C)c1 [N-[(1S,2S)-1-(3,5-difluorobenzyl)-2-hydroxy-3-({(1S)-1-methyl-2-[(2-methylpropyl)amino]-2-oxoethyl}amino)propyl]-N,N-dipropylbenzene-1,3-dicarboxamide]
